Source: patent US9301999B2 (priority 2009, dated 2016)
Values joined by “and” are separate entries in the source; they are usually repeats but may differ in a detail not shown here. Equal values may be shown once. “Also recorded” adds a separate entry of the source. Where no end group is shown, it is not given here.

Assays:
[1] = tested on: MC/9 mast cells; assay type: cell-based, murine; design: MCD10: concentration of peptide necessary to induce degranulation of 10% of mast cells: unit not given here; conditions: for EC50: read-out: MCD50: concentration of peptide necessary to induce degranulation of 50% of mast cells
[2] = tested on: anti-rPA serum IgG; design: species or system C3H/HeN female mice; conditions: mouse, in vivo
[3] = tested on: anti-rPA IgG; design: species or system female C3H mice; conditions: mouse, in vivo
[4] = tested on: anti-PA IgG; design: species or system Female C3H/HeN mice; conditions: mouse, in vivo
[5] = tested on: anthrax lethal toxin; design: species or system C3H/HeN female mice; conditions: mouse, in vivo
[6] = tested on: anti-rPA IgG; design: species or system female C3H/HeN mice; conditions: mouse, in vivo
[7] = tested on: anti-WNV IgG; assay type: in vivo, Female BALB/c mice; conditions: nasal, days 0, 7 and 21, WNV antigen 1 μg + 0.25 or 1.25 nmoles peptide; for Anti-WNV IgG titers in sera on day 28, versus antigen alone: ANOVA p<0.05; for anti-WNV IgG titers, difference versus mice that received MP7: serum day 28

Substance: I N L K A L A A L A K K M L (INLKALAALAKKML) [MP-13M]
- MCD10: concentration of peptide necessary to induce degranulation of 10% of mast cells [1]: 64.54

Substance: I N L K A L A A L A K I I L [MP-12I-Ac]
- % Mast Cell Degranulation [1]: 0%

Substance: I N L K A L A A L A K K F L (INLKALAALAKKFL) [MP-13F]
- MCD10: concentration of peptide necessary to induce degranulation of 10% of mast cells [1]: 24.37

Substance: cholera toxin [CT, reference compound]
- serum anti-PA IgG geometric means titers (GMT), adjuvant activity [2]: did not significantly augment
- Tukey's Multiple Comparison Test versus rPA, Significant? P < 0.05? [3]: Yes

Substance: I N L K A L A A L A K K C L (INLKALAALAKKCL) [MP-13C]
- MCD10: concentration of peptide necessary to induce degranulation of 10% of mast cells [1]: 17.27

Substance: INLKALAALAKYIL [MP-12Y, I N L K A L A A L A K Y I L]
- MCD10: concentration of peptide necessary to induce degranulation of 10% of mast cells [1]: 4.09
- EC50 [1]: 11.1 µM

Substance: I N L K A W A A L A K K I L (INLKAWAALAKKIL) [MP-6W]
- MCD10: concentration of peptide necessary to induce degranulation of 10% of mast cells [1]: 24.99

Substance: I N L K A L A A L A K N I L (INLKALAALAKNIL) [MP-12N]
- MCD10: concentration of peptide necessary to induce degranulation of 10% of mast cells [1]: 31.86

Substance: I N L K A L A A L A K A L L [MP7-Ac-NH2]
- % Mast Cell Degranulation [1]: 54.46% and 47.52% and 29.89%

Substance: INLKAKAALAKKLL-OH [Mastoparan 17]
- adjuvant activity as determined by serum anti-PA IgG endpoint titers [4]: did not provide adjuvant activity
- % MC/9 Degranulation [1]: 0%
- serum anti-PA IgG geometric means titers (GMT), adjuvant activity [2]: did not provide detectable adjuvant activity
- lethal toxin neutralizing antibody response in serum [5]: did not induce lethal toxin neutralizing responses greater than those detected in mice immunized with rPA alone

Substance: INLKALAALAKALLGGGINLKALAALAKALL-NH2 [MP7-2XB]
- % MC/9 Degranulation [1]: 40.49% and 56.90%

Substance: I N L K A L A A L A K R I L (INLKALAALAKRIL) [MP-12R]
- MCD10: concentration of peptide necessary to induce degranulation of 10% of mast cells [1]: 23.29

Substance: I N L K A L A A L A K F I L [MP-12F-Ac-NH2]
- % Mast Cell Degranulation [1]: 87.65% and 83.36% and 67.41%

Substance: INLKALAALAKKIL [Mastoparan-OH]
- adjuvant activity as determined by serum anti-PA IgG endpoint titers [4]: provided adjuvant activity
- serum anti-rPA IgG titer versus mice immunized with rPA alone [6]: not significantly different

Substance: I N L K A L A A L A K I I L [MP-12I-Ac-NH2]
- % Mast Cell Degranulation [1]: 87.97% and 67.63% and 46.09%

Substance: INLKALAALAKCIL [MP-12C, I N L K A L A A L A K C I L]
- MCD10: concentration of peptide necessary to induce degranulation of 10% of mast cells [1]: 5.33
- EC50 [1]: 23.8 µM

Substance: I N L K A L A A L A K W I L [MP-12W-OH]
- % Mast Cell Degranulation [1]: 23.83%

Substance: INLKALAALAKLIL [MP-12L, I N L K A L A A L A K L I L]
- Anti-WNV IgG titers in sera on day 28, versus antigen alone [7]: significantly greater
- anti-WNV IgG titers, difference versus mice that received MP7 [7]: no significant difference
- MCD10: concentration of peptide necessary to induce degranulation of 10% of mast cells [1]: 2.30
- EC50 [1]: 5.19 µM

Substance: I N L K A L A A L A K K L L (INLKALAALAKKLL) [MP-13L]
- MCD10: concentration of peptide necessary to induce degranulation of 10% of mast cells [1]: 22.46

Substance: I N L K A L A A L A K A L L [MP7-Ac]
- % Mast Cell Degranulation [1]: 0.31%

Substance: WQWRWWWWWWRWWW-NH2 [Duke Mast I]
- % MC/9 Degranulation [1]: 30.50%
- Tukey's Multiple Comparison Test versus CT, Significant? P < 0.05? [3]: No
- Tukey's Multiple Comparison Test versus rPA, Significant? P < 0.05? [3]: Yes
- adjuvant activity: serum anti-rPA IgG titers compared to rPA alone [3]: statistically significant adjuvant activity

Substance: I N L K A L A A L A K H I L (INLKALAALAKHIL) [MP-12H]
- MCD10: concentration of peptide necessary to induce degranulation of 10% of mast cells [1]: 23.86

Substance: I N L K A L A A L A K I I L [MP-12I-OH]
- % Mast Cell Degranulation [1]: 0%

Substance: I N L K A L A A L A K I I L [MP-12I-NH2]
- % Mast Cell Degranulation [1]: 81.66% and 70.13% and 49.9%

Substance: INLKALAALAKALLSGGRGGINLKALAALAKALL-NH2 [MP7-2XA]
- % MC/9 Degranulation [1]: 50.20% and 78.40%

Substance: I N L K A L A A L A K F I L [MP-12F-OH]
- % Mast Cell Degranulation [1]: 38.07%

Substance: INLKALAALAKFIL [MP-12F, I N L K A L A A L A K F I L]
- Anti-WNV IgG titers in sera on day 28, versus antigen alone [7]: significantly greater
- anti-WNV IgG titers, difference versus mice that received MP7 [7]: no significant difference
- MCD10: concentration of peptide necessary to induce degranulation of 10% of mast cells [1]: 4.39
- EC50 [1]: 9.22 µM

Substance: INLKALAALAKVIL [MP-12V, I N L K A L A A L A K V I L]
- MCD10: concentration of peptide necessary to induce degranulation of 10% of mast cells [1]: 14.87
- EC50 [1]: 41.2 µM

Substance: I N L K A I A A L A K K I L (INLKAIAALAKKIL) [MP-6I]
- MCD10: concentration of peptide necessary to induce degranulation of 10% of mast cells [1]: 61.14

Substance: I N L K A L A A L A K L I L [MP-12L-NH2]
- % Mast Cell Degranulation [1]: 83.36% and 67.37% and 51.29%

Substance: INLKALAALAKWIL [MP-12W, I N L K A L A A L A K W I L]
- Anti-WNV IgG titers in sera on day 28, versus antigen alone [7]: significantly greater
- anti-WNV IgG titers, difference versus mice that received MP7 [7]: no significant difference
- MCD10: concentration of peptide necessary to induce degranulation of 10% of mast cells [1]: 1.47
- EC50 [1]: 4.71 µM

Substance: I N L K A L A A L A K S I L (INLKALAALAKSIL) [MP-12S]
- MCD10: concentration of peptide necessary to induce degranulation of 10% of mast cells [1]: 22.50

Substance: INLKALAALAKAIL [MP-12A, I N L K A L A A L A K A I L]
- MCD10: concentration of peptide necessary to induce degranulation of 10% of mast cells [1]: 8.88
- EC50 [1]: 25.3 µM

Substance: WQWRWWWWWWRRWW-NH2 [Duke Mast C]
- % MC/9 Degranulation [1]: 47.90%
- Tukey's Multiple Comparison Test versus CT, Significant? P < 0.05? [3]: No
- Tukey's Multiple Comparison Test versus Duke Mast F NH2, Significant? P < 0.05? [3]: No
- Tukey's Multiple Comparison Test versus Duke Mast I NH2, Significant? P < 0.05? [3]: No
- Tukey's Multiple Comparison Test versus rPA, Significant? P < 0.05? [3]: Yes
- adjuvant activity: serum anti-rPA IgG titers compared to rPA alone [3]: statistically significant adjuvant activity

Substance: I N L K A L A A L A K W I L [MP-12W-Ac]
- % Mast Cell Degranulation [1]: 38.76%

Substance: I N L K A L A A L A K L I L [MP-12L-Ac-NH2]
- % Mast Cell Degranulation [1]: 80.35% and 76.49% and 58.57%

Substance: I N L K A F A A L A K K I L (INLKAFAALAKKIL) [MP-6F]
- MCD10: concentration of peptide necessary to induce degranulation of 10% of mast cells [1]: 58.40

Substance: I N L K A L A A L A K A L L [MP7-OH]
- % Mast Cell Degranulation [1]: 2.87%
- serum anti-rPA IgG titers, difference between the -OH and -NH2 forms [6]: no significant difference

Substance: INLKALAALAKALL [Mastoparan 7, INLKALAALAKALL—NH2, reference compound]
- Anti-WNV IgG titers in sera on day 28, versus antigen alone [7]: significantly greater
- % MC/9 Degranulation [1]: 50.25% and 80.20%
- % Mast Cell Degranulation [1]: 72.33% and 54.35% and 39.12%
- MCD10: concentration of peptide necessary to induce degranulation of 10% of mast cells [1]: 6.31
- mast cell degranulation (β-hexosaminidase released into the culture medium) [1]: induced mast cell degranulation
- EC50 [1]: 18.1 µM
- serum anti-rPA IgG titers, difference between the -OH and -NH2 forms [6]: no significant difference
- serum anti-PA IgG geometric means titers (GMT), adjuvant activity [2]: significantly increased
- lethal toxin neutralizing antibody response in serum [5]: neutralized anthrax lethal toxin; also recorded: significantly increased versus all other groups

Substance: I N L K A L A A L A K L I L [MP-12L-OH]
- % Mast Cell Degranulation [1]: 21.36%

Substance: INLKALAALAKIIL [MP-12I, I N L K A L A A L A K I I L]
- Anti-WNV IgG titers in sera on day 28, versus antigen alone [7]: significantly greater
- anti-WNV IgG titers, difference versus mice that received MP7 [7]: no significant difference
- MCD10: concentration of peptide necessary to induce degranulation of 10% of mast cells [1]: 2.32
- EC50 [1]: 12 µM

Substance: KLKLLLLLKLK-OH
- adjuvant activity as determined by serum anti-PA IgG endpoint titers [4]: did not provide adjuvant activity

Substance: INLKALAALAKMIL [MP-12M, I N L K A L A A L A K M I L]
- MCD10: concentration of peptide necessary to induce degranulation of 10% of mast cells [1]: 2.96
- EC50 [1]: 11.3 µM

Substance: I N L K A L A A L A K L I L [MP-12L-Ac]
- % Mast Cell Degranulation [1]: 1.07%

Substance: INLKALAALAKALLINLKALAALAKALL-NH2 [MP7-2X]
- % MC/9 Degranulation [1]: 33.60% and 47.80%

Substance: I N L K A L A A L A K W I L [MP-12W-NH2]
- % Mast Cell Degranulation [1]: 79.87% and 85.74% and 80.05%

Substance: I N L K A L A A L A K Q I L (INLKALAALAKQIL) [MP-12Q]
- MCD10: concentration of peptide necessary to induce degranulation of 10% of mast cells [1]: 18.73

Substance: I N L K A L A A L A K E I L (INLKALAALAKEIL) [MP-12E]
- MCD10: concentration of peptide necessary to induce degranulation of 10% of mast cells [1]: 40.32

Substance: I N L K A L A A L A K F I L [MP-12F-NH2]
- % Mast Cell Degranulation [1]: 95.24% and 87.57% and 70.01%

Substance: I N L K A L A A L A K K W L (INLKALAALAKKWL) [MP-13W]
- MCD10: concentration of peptide necessary to induce degranulation of 10% of mast cells [1]: 22.76

Substance: I N L K A L A A L A K G I L (INLKALAALAKGIL) [MP-12G]
- MCD10: concentration of peptide necessary to induce degranulation of 10% of mast cells [1]: 68.76

Substance: WRWRWWWWWWRRWW-NH2 [Duke Mast F]
- % MC/9 Degranulation [1]: 27.80% and 40.07%
- Tukey's Multiple Comparison Test versus CT, Significant? P < 0.05? [3]: No
- Tukey's Multiple Comparison Test versus Duke Mast I NH2, Significant? P < 0.05? [3]: No
- Tukey's Multiple Comparison Test versus rPA, Significant? P < 0.05? [3]: Yes
- adjuvant activity: serum anti-rPA IgG titers compared to rPA alone [3]: statistically significant adjuvant activity

Substance: KLKLLLLLKLK-NH2
- adjuvant activity as determined by serum anti-PA IgG endpoint titers [4]: did not provide adjuvant activity

Substance: I N L K A L A A L A K F I L [MP-12F-Ac]
- % Mast Cell Degranulation [1]: 2.75%
